Usually EC50 stands for the concentration that produces a half-maximal response. As a reminder, the CC50 is the concentration that lowers cell viability or growth by half. One may read the IC50 as the concentration at which inhibition is half-maximal.

The structures appear in SMILES notation. Like-named read-outs stand apart in the source and are kept apart here. Some results are limits rather than exact numbers.

The subject of series [1] is T. b. brucei Lister strain 427 bloodstream form (BSF). Put plainly: In vitro activity assay for T. brucei (resazurin growth inhibition). Format: cell-based. The conditions noted are these: Trypanosoma brucei. In general terms: Resazurin is reduced to fluorescent resorufin, in cell work by metabolically active cells.
Series [2] can be described thus: Host cell toxicity in the T. cruzi amastigote assay. Format: cell-based. The conditions noted are these: human, amastigote host cells; read-out: T. cruzi Dm28c CC50 (U2OS). As for the experimental part: (§1) U2OS human osteosarcoma cells were maintained in DMEM supplemented with high glucose, 10% FBS, and 1% P/S at 37 °C with 5% CO2 in air. […] Cell images were acquired by an automated image analyzer (Operetta, Perkin Elmer Technology, Waltham, MA, USA); analysis included at least 1000 cells in five fields per well. For the imaging of infected cells and parasites, Draq-5 was observed under a 20× air objective. An image analysis algorithm (Columbus, Perkin Elmer Technology) was used to detect the Draq-5 signal in the nuclei of cells and parasites as described in a previous article and shown in Supplementary Figure S1 [20]. The number of parasites was defined by the value of the number of parasites in infected cells of the acquired image.

The subject of series [3] is L. donovani promastigotes. Put plainly: L. donovani promastigotes assay (resazurin). Format: cell-based. The conditions noted are these: for EC50: read-out: L. donovani EC50 (PRO).
Series [4] deals with T. cruzi Dm28c epimastigotes. Put plainly: T. cruzi epimastigotes assay (resazurin). Format: cell-based. The conditions noted are these: Trypanosoma cruzi, read-out: T. cruzi Dm28c EC50 (EPI). As for the experimental part:
The exponential growth phase of epimastigotes were treated with different concentrations of drugs or 0.1% DMSO as negative control and incubated for 3 days at 28 °C. The viability of parasites was quantified with resazurin as described in the T. brucei assay.

Series [5] relates to intracellular T. cruzi Dm28c amastigotes in U2OS. Put plainly: T. cruzi intracellular amastigotes assay in U2OS (image based). Type of series: cell-based. The conditions noted are these: Trypanosoma cruzi; for EC50: read-out: T. cruzi Dm28c EC50 (AMA). As to the method: as §1
A further series concerns T. cruzi. Also noted: method as in earlier work. The conditions noted are these: amiodarone acting alone; reported previously; ref 5 (b3); cited from earlier work.
Series [6] relates to intracellular L. donovani amastigotes in THP-1. Put plainly: L. donovani intracellular amastigotes assay in THP-1 (image based). Format: cell-based. The conditions noted are these: Leishmania donovani, 72 h; differentiated THP-1 host cells, 3 days of compound incubation; Figure 2F.
The test system of a further series is L. donovani amastigotes. Put plainly: L. donovani (VL) in vivo mouse model, liver LDU. Also noted: species or system BALB/c mice. The conditions noted are these: 30 mg/kg. As for the experimental part:
BALB/c mice (n = 5) were injected with 2 × 10^7 hamster spleen-derived L. donovani amastigotes via the retro-orbital venous sinus route. From day 7 post-infection, groups of mice were treated using the drug vehicle only, miltefosine (30 mg/kg), or SQ109 (30, 50, 100 mg/kg). On day 16 post-infection, all animals were humanely euthanized and assessed microscopically using Giemsa-stained liver imprints. […] The LDU values for the drug-treated samples were compared to those of the untreated samples.

Series [7] relates to THP-1 human monocyte cell line. Put plainly: Host cell toxicity in the L. donovani amastigote assay. Type of series: cell-based. The conditions noted are these: 3 days of compound incubation; Figure 2F. As to the method: The THP-1 human monocyte cell line was grown in RPMI-1640 medium (Welgene, Gyeongsangbuk-do, Republic of Korea) supplemented with 10% FBS and 1% P/S. For differentiation, THP-1 cells were treated for 3 days with 50 ng/mL of PMA [20]. […] An image analysis was performed as described in the T. cruzi assay (Figure S2).

For another series, the system named is T. cruzi Dm28c. Put plainly: T. cruzi acute in vivo mouse model. Set-up: species or system BALB/c mice. The conditions noted are these: 100 mg/kg p.o. From the text:
BALB/c mice were infected with TCT of T. cruzi Dm28c (10^7 cells) by i.p. injection. Five days post-infection, infected mice were sacrificed to collect BSF of T. cruzi. BALB/c mice were intraperitoneally infected with BSF of T. cruzi Dm28c (5 × 10^4 cells). Five days post-infection, BALB/c mice were infected with previously collected 2nd-round BSF cells (3 × 10^4 cells). Mice were divided into groups (n = 10) and treated orally with drugs for 5 consecutive days for 2 weeks by starting from day 2 post-infection administration of DPBS, 100 mg/kg of benznidazole, or 100 mg/kg of SQ109 via p.o. route, respectively. Parasitemia was evaluated every 2 days for 5 weeks by blood collection from the mouse tail vein, and survival was monitored for 2 months. Mice showing impaired health status were euthanized.

The mark [8] stands for this setting: bloodstream forms, read-out: T. brucei BSF EC50 (converted).
Setting [9] is: Leishmania donovani, promastigotes.

Take `CC(C)=CCC/C(C)=C/CNCCNC1C2CC3CC(C2)C(O)C1C3` (centres unmarked) [Compound 24]: the concentration giving a half-maximal response (EC50) was 1.8 µM in series [1] (setting [8]), 1.1 µM in [3] (setting [9]), 14 µM in series [4] (epimastigotes) and 3.2 µM in series [5] (amastigotes in U2OS). Further, the CC50 at 3 days in series [2] was 14 µM.

As for `CC(C)=CCC/C(C)=C/CNCCNC1C2CC3CC1CC(C2)C3O` (centres unmarked) [Compound 23], the EC50 is 1.8 µM in series [1] (setting [8]), 2.3 µM in series [3] (setting [9]), 20 µM in series [4] (epimastigotes) and 4.3 µM in [5] (amastigotes in U2OS). In addition, the CC50 at 3 days in series [2] is 17 µM.

Turning to `CC(C)=CCC/C(C)=C/C(=O)O` [Compound 14], the concentration giving a half-maximal response (EC50) in series [1] (setting [8]) is 13 µM; in series [3] (setting [9]) it was more than 100 µM; in [4] (epimastigotes), more than 100 µM; in series [5] (amastigotes in U2OS), more than 100 µM. The CC50 at 3 days in [2] is more than 100 µM.

Consider `CCCCc1oc2ccccc2c1C(=O)c1cc(I)c(OCCN(CC)CC)c(I)c1` [amiodarone], for which the “survival in T. cruzi infection” value in the series on T. cruzi was 40%.

`CCCCCCCCCCCCCCCCOP(=O)([O-])OCC[N+](C)(C)C` [miltefosine]: the IC50 in series [3] (Leishmania donovani, 72 h, Figure 2E, read-out: IC50, L. donovani promastigote growth) is 0.171 µM; in series [6], 1.51 µM. The “parasite burden in liver (LDU)” value in the series with L. donovani amastigotes (5 days of treatment) is listed as 142 ± 24 LDU. The same molecule came in with a parasite reduction in the series on L. donovani amastigotes (versus vehicle-treated group) of 87.5%. In addition, in series [7], the “host cell (THP-1) toxicity, in words” value was “no host cell toxicity was observed at the highest tested dose”.

For `NC1C2CC3CC(C2)CC1C3` (centres unmarked) [Compound 18], the half-maximal effective concentration (EC50) was 71 µM in series [1] (setting [8]), 51 µM in [3] (setting [9]), more than 100 µM in series [4] (epimastigotes) and 50 µM in [5] (amastigotes in U2OS). In addition, the CC50 at 3 days in series [2] was more than 100 µM.

As to `CC(C)=CCC/C(C)=C/CNCCNC1C2CC3CC1CC(O)(C3)C2` (centres unmarked) [Compound 22], the EC50 in [1] (setting [8]) is 2.9 µM; in series [3] (setting [9]), 3.54 µM; in series [3] (promastigotes) it was 3.5 µM; in series [4] (epimastigotes), 23 µM; in series [5] (amastigotes in U2OS), 7.5 µM. Also, the CC50 at 3 days in [2] was found to be 29 µM.

Take `ON=C1C2CC3CC(C2)CC1C3` [Compound 16]: the concentration giving a half-maximal response (EC50) in series [1] (setting [8]) was more than 200 µM; in series [3] (setting [9]), more than 100 µM; in [4] (epimastigotes), more than 100 µM; in [5] (amastigotes in U2OS), more than 100 µM. For the same molecule, in [2], the half-maximal cytotoxic concentration (CC50) at 3 days is more than 100 µM.

In the case of `C/C(=C\CNCCNC1C2CC3CC(C2)CC1C3)CCC(=O)C(C)C` (centres unmarked) [Compound 12], the EC50 is 2 µM in series [1] (setting [8]), 0.55 µM in [3] (setting [9]), 45 µM in [4] (epimastigotes) and 6.9 µM in series [5] (amastigotes in U2OS). Also, the half-maximal cytotoxic concentration (CC50) at 3 days in series [2] is 32 µM.

For `CC(C)=CCC/C(C)=C/CNCCN` [Compound 20], the EC50 in series [1] (setting [8]) is 2.2 µM; in series [3] (setting [9]), 6 µM; in series [4] (epimastigotes), more than 100 µM; in series [5] (amastigotes in U2OS), more than 100 µM. Besides, the CC50 at 3 days in series [2] was more than 100 µM.

With `CC(C)=CCCC(C)=CC=NO` [Compound 15a], the concentration for a half-maximal effect (EC50) in series [1] (setting [8]) is more than 200 µM; in series [3] (setting [9]), more than 100 µM; in [4] (epimastigotes), more than 100 µM; in series [5] (amastigotes in U2OS) it was more than 100 µM. For the same molecule, in series [2], the CC50 at 3 days was more than 100 µM.

Take `N=C(N)c1ccc(OCCCCCOc2ccc(C(=N)N)cc2)cc1` [pentamidine, reference compound]: the half-inhibitory concentration (IC50) in series [1] (3 days (72 h) of compound incubation, Figure 2A, read-out: IC50, T. brucei trypomastigote viability) turned out to be 0.15 µM.

Take `CC(C)=CCC/C(C)=C/CNCCNC1C2CC3CC(C2)CC1(O)C3` (centres unmarked) [Compound 21]: the EC50 in series [1] (setting [8]) was 3.2 µM; in series [3] (setting [9]), 1.27 µM; in [3] (promastigotes), 1.3 µM; in [4] (epimastigotes), 14 µM; in [5] (amastigotes in U2OS) it was 3 µM. Besides, the cytotoxic concentration (CC50) at 3 days in [2] amounted to 6.8 µM.

As for `O=C1C2CC3CC(C2)CC1C3` [Compound 19], the concentration for a half-maximal effect (EC50) in series [1] (read-out: T. brucei BSF EC50) was more than 200 µM; in series [3] (Leishmania donovani), more than 100 µM; in series [4], more than 100 µM; in [5] (U2OS) it was more than 100 µM. Besides, the CC50 at 3 days in series [2] was more than 100 µM.

For `CC(C)=CCCC1(C)CC=NO1` (centres unmarked) [Compound 15b], the EC50 is more than 200 µM in [1] (setting [8]), more than 100 µM in [3] (setting [9]), more than 100 µM in series [4] (epimastigotes) and more than 100 µM in series [5] (amastigotes in U2OS). Moreover, the CC50 at 3 days in series [2] was more than 100 µM.

`NCCNC1C2CC3CC(C2)CC1C3` (centres unmarked) [Compound 7]: the EC50 in series [1] (setting [8]) is 4.6 µM; in series [3] (setting [9]) it was 22 µM; in [4] (epimastigotes) it was 56 µM; in series [5] (amastigotes in U2OS), 25 µM. The 50% cytotoxic concentration (CC50) at 3 days in [2] was more than 100 µM.

`C/C(=C\CC/C(C)=C/CNCCNC1C2CC3CC(C2)CC1C3)CO` (centres unmarked) [Compound 9]: the EC50 in series [1] (setting [8]) was 5.4 µM; in [3] (setting [9]) it was 2.9 µM; in [4] (epimastigotes), 28 µM; in [5] (amastigotes in U2OS) it was 4.9 µM. Further, the CC50 at 3 days in [2] is 27 µM.

For the molecule `O=C(Cn1ccnc1[N+](=O)[O-])NCc1ccccc1` [benznidazole], in the series on T. cruzi Dm28c (40 days after infection), the “survival of T. cruzi infected mice, in words” value is on record as “protected all the mice from death”. For the same molecule, the “parasitemia, in words” value with T. cruzi Dm28c (entire experimental period) is “complete suppression of parasitemia”. The half-inhibitory concentration (IC50) in [5] (72 h, U2OS host cells, 3 days of compound incubation, Figure 2D, read-out: IC50, intracellular T. cruzi amastigote survival) stood at 1.71 µM.

As for `CC(C)=CCC/C(C)=C/C=O` [Compound 13], the concentration giving a half-maximal response (EC50) in [1] (setting [8]) was 2.3 µM; in series [3] (setting [9]) it was more than 100 µM; in series [4] (epimastigotes), more than 100 µM; in series [5] (amastigotes in U2OS) it was more than 100 µM. Besides, the CC50 at 3 days in [2] was more than 100 µM.

For the molecule `CC(C)=CCC/C(C)=C/CN` [Compound 17], the EC50 in [1] (setting [8]) was 32 µM; in series [3] (setting [9]) it was 21 µM; in series [4] (epimastigotes), more than 100 µM; in series [5] (amastigotes in U2OS) it was 40 µM. Besides, the CC50 at 3 days in series [2] is more than 100 µM.

The record behind these values is publication PMC8944987, “In Vivo Efficacy of SQ109 against Leishmania donovani, Trypanosoma spp. and Toxoplasma gondii and In Vitro Activity of SQ109 Metabolites” (Biomedicines, 2022).
